{
  "source": "paper PMC10308680",
  "about": "(Journal of Biomedical Science, 2023)",
  "key": {"[1]": {"tested_on": "CD28/B7-2 (cell-surface B7-2)", "type": "cell-based, human"}, "[2]": {"tested_on": "B7-2/CD28", "type": "cell-based, human"}},
  "note": "“And” between values parts separate entries of the source, which are not always exact repeats. Equal entries are not always repeated.",
  "data": [
    {"sequence": "ASMDYPVL [p2TAsc]", "values": [
      {"measurement": "inhibition of binding of soluble CD28 to cell-surface B7-2", "setting": "[1]", "value": "abrogated the ability of p2TA to inhibit binding of CD28 to cell-surface B7-2"},
      {"measurement": "Per cent doubly labeled cells (B7-2/CD28)", "setting": "[2]", "value": "8.4% and 9.0% and 8.6%"},
      {"measurement": "attenuation of intercellular B7-2/CD28 engagement (in words)", "setting": "[2]", "value": "fails to attenuate intercellular B7-2/CD28 engagement"}
    ]}
  ]
}
